Like-named read-outs stand apart in the source and are kept apart here.

The record followed here is patent publication US20030224469A1, “Methods and kits for assays utilizing fluorescence polarization” (priority 2002, published 2003).

Experiment [1] has as its target T1, T-Cell Protein Tyrosine Phosphatase (TC PTP) (Homo sapiens, UniProt P17706).
T1 construct: purchased New England Biolabs
T1 sequence (P17706 1-317 limits assumed): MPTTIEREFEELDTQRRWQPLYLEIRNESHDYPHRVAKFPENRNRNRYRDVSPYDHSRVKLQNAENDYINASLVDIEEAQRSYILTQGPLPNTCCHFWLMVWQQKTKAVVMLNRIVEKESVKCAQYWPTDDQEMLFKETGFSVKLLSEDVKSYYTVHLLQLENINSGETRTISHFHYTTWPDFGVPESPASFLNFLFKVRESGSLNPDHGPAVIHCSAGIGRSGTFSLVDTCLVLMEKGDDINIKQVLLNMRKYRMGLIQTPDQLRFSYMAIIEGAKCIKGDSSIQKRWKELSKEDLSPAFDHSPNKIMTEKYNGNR
Briefly: FP-based protein tyrosine phosphatase assay (dual color). Format: biochemical. On the procedure: The enzymatic activity of T-Cell Protein Tyrosine Phosphatase (TC PTP) was measured in a dose-dependent manner by incubating different concentrations of TC PTP (New England Biolabs; Beverly, Mass.), from 0.05 U/μL to 0.0005 U/μL, with 50 μL of a mixture of an anti-phosphotyrosine antibody, a fluorescein-labeled phosphopeptide and a tetramethylrhodamine-labeled phosphopeptides. The final reaction volume was […]. Two control assays were performed. […] Fluorescence polarization measurements were performed using the appropriate excitation and emission filters appropriate for each fluorophore. Increasing concentrations of TC PTP result in an increased rate of dephosphorylation of the labeled phosphopeptides, which is indicated by a decrease in polarization (due to the inability of the dephosphorylated peptide to bind to the antibody).
In a black, 96-well plate (DYNEX; Chantilly, Va.), Na3VO4 (Sigma; St. Louis, Mo.) was serially diluted 2-fold into 24 wells from a starting concentration of 500 nM in a volume of 50 μL. TC PTP was then added to each well so that the final concentration of the enzyme would be 0.005 U/μL per assay. […] At the end of the incubation, 10 μL of 550 μM Na3VO4 was added to quench all of the reactions, and the polarization for each sample was measured on a TECAN Polarion using the appropriate excitation and emission filters appropriate for each fluorophore. […]

The target of experiment [2] is glucocorticoid receptor (GR) (Homo sapiens, UniProt P04150). Here is the method:
A non-labeled steroid (dexamethasone) was serially diluted in 10 mM potassium phosphate pH 7.4,20 mM Na2MoO4, 2% DMSO, 0.1 mM EDTA, 0.5 mM DTT buffer containing 0.1 mM stabilizing peptide. This steroid was used as a competitive binder to glucocorticoid receptor (GR). […] Control wells were also prepared without either unconjugated fluorescein or TMR present. As in Examples 1 and 2, two separate fluorescence polarization values were obtained for each sample using a green filter or a red filter.

Sequence of glucocorticoid receptor (GR) (P04150 whole entry, species assumed): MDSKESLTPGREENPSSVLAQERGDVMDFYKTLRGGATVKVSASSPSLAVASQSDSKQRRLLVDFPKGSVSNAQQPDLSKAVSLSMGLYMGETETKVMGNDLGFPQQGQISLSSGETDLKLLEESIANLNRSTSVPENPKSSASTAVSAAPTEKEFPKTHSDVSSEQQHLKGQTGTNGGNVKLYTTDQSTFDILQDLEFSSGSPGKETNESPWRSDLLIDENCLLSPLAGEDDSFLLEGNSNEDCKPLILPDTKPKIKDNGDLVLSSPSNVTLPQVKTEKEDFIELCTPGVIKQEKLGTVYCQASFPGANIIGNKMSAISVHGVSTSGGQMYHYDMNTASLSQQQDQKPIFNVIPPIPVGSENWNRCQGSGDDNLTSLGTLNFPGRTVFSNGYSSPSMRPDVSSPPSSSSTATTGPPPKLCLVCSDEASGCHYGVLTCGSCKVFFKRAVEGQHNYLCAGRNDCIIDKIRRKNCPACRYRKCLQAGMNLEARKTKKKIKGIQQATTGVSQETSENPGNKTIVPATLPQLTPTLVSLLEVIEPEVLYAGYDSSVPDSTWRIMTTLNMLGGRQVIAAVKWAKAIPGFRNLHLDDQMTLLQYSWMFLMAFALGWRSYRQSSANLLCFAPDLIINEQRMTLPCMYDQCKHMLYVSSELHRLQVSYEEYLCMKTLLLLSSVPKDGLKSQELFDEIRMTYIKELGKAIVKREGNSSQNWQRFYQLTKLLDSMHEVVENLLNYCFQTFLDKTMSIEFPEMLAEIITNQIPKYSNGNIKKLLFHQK

For `[Na+].[Na+].[Na+].[O]=[V]([O-])([O-])[O-]` [Na3VO4], in experiment [1] (50 μM Na3VO4), the “inhibition of TC PTP-dependent change in polarization” value is on record as “completely inhibited”. Besides, the IC50 in experiment [1] (TC PTP 0.005 U/μL, 15 minutes incubation, nonlinear regression of semi-log plot) turned out to be 4 nM.
dexamethasone [steroid competitor]: the fluorescence polarization entry in experiment [2] (high concentrations of steroid competitor) is “about 60 mP”; in experiment [2] (low concentration of competitor), roughly 260 mP.
